Like-named read-outs stand apart in the source and are kept apart here.
Assays:
Dα1/Dβ1/Dβ2 nAChR = molecular target: T1, Dα1/Dβ1/Dβ2 nAChR (Drosophila melanogaster, UniProt P04755+P09478+P25162); assay: cell-based; parameters: species or system Xenopus laevis oocytes; conditions: Oocyte
T1 sequence (P09478 22-567): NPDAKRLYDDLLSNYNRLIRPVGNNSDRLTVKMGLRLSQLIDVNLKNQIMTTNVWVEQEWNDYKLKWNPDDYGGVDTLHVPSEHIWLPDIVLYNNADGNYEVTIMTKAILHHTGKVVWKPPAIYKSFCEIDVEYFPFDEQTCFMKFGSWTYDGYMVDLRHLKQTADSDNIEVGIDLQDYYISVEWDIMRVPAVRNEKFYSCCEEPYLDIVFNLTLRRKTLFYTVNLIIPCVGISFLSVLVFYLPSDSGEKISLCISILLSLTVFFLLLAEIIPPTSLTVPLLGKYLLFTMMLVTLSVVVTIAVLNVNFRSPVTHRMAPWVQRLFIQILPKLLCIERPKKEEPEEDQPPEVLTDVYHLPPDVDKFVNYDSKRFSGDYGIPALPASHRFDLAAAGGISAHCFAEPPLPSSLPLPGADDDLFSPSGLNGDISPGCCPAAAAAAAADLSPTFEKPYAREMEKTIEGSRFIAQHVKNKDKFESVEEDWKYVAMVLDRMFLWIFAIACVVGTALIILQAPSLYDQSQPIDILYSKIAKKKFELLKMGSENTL
T1 sequence (P04755 25-521): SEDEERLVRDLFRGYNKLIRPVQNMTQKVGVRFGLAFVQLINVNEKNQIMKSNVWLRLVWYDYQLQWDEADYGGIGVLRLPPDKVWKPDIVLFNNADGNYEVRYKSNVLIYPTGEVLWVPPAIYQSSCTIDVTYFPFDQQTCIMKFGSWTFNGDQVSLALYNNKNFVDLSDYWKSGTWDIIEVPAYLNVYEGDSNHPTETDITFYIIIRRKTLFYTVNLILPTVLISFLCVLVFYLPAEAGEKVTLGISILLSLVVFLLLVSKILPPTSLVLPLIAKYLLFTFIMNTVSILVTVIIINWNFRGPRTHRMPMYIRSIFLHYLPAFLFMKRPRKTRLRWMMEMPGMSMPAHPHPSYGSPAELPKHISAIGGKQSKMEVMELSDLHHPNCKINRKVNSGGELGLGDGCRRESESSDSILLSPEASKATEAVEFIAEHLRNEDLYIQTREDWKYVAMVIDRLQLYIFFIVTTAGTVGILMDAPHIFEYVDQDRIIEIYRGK
T1 sequence (P25162 19-519): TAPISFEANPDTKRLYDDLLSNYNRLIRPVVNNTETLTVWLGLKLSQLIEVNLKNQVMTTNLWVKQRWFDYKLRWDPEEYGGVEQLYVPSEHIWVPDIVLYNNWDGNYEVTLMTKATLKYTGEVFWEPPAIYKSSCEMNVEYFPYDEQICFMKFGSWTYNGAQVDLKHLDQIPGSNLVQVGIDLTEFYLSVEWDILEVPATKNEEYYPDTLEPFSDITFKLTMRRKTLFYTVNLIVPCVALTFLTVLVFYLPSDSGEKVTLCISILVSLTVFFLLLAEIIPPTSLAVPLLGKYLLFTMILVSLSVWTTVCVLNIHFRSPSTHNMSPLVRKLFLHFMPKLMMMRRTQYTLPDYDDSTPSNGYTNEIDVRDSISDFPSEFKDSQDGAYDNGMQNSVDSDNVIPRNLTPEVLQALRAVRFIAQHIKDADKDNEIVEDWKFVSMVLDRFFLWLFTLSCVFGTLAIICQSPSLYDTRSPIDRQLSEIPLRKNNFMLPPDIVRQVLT

Dα1/Dα2/Dβ1 nAChR = molecular target: T2, Dα1/Dα2/Dβ1 nAChR (Drosophila melanogaster, UniProt P04755+P09478+P17644); assay: cell-based; parameters: species or system Xenopus laevis oocytes; conditions: Oocyte
T2 sequence (P09478 22-567): T1 sequence (P09478 22-567)
T2 sequence (P17644 22-576): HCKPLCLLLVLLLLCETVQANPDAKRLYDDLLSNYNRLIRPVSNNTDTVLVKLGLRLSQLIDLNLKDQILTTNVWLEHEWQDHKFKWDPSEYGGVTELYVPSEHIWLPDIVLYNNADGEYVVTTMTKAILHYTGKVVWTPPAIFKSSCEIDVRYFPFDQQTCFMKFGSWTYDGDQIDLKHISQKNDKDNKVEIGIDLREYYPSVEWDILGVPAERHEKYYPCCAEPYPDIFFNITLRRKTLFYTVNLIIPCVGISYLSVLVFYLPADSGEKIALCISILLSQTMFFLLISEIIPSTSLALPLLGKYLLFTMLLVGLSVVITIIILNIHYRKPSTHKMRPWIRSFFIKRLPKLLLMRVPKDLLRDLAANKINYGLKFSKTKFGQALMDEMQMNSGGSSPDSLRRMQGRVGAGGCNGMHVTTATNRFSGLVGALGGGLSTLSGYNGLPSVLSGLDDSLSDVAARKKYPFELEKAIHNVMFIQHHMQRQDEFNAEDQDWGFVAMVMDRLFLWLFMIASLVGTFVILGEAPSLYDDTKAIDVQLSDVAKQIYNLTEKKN
T2 sequence (P04755 25-521): T1 sequence (P04755 25-521)

O=[N+]([O-])NC1=NCCN1Cc1ccc(Cl)nc1 [imidacloprid]
Emax (Dα1/Dβ1/Dβ2 nAChR; read-out: Imidacloprid / Imax): 24.4 ± 2.2% | Emax (Dα1/Dα2/Dβ1 nAChR; read-out: Imidacloprid / Imax): 4.6 ± 0.4%

CN/C(=N\[N+](=O)[O-])NCc1cnc(Cl)s1 [clothianidin]
Emax (Dα1/Dβ1/Dβ2 nAChR; read-out: Clothianidin / Imax / ND): 41.1 ± 1.1% | Emax (Dα1/Dα2/Dβ1 nAChR; read-out: Clothianidin / Imax): 46.7 ± 2.1%

N#C/N=C1\SCCN1Cc1ccc(Cl)nc1 [thiacloprid]
Emax (Dα1/Dβ1/Dβ2 nAChR; read-out: Thiacloprid / Imax): 5.6 ± 0.5% | Emax (Dα1/Dα2/Dβ1 nAChR; read-out: Thiacloprid / Imax): 2 ± 0.2%

— article PMC7368294 (Proceedings of the National Academy of Sciences of the …, 2020)
